In patent US9403830B2, “Inhibitors of leukotriene production” (Boehringer Ingelheim International GmbH, priority 2012, dated 2016):

Tests used:
[1] = system: LTB4 synthesis in human whole blood; test: human whole blood (HWB) assay, inhibition of LTB4 production; assay type: cell-based; details: heparinized human whole blood, calcimycin 20 μM stimulation, plasma LTB4
Method in brief: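 Heparinized human whole blood preincubated with compound 15 min at 37 °C, then stimulated with 20 μM (final) calcimycin for 30 min at 37 °C. Plasma LTB4 measured by antibody-based HTRF; IC50 reported.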

human LTA4 hydrolase = target: T1, human LTA4 hydrolase (Homo sapiens, UniProt P09960); test: LTA4H Enzyme assay (peptidase, Arg-AMC cleavage); assay type: biochemical; details: LTA4H enzyme 1 nM, Arg-AMC substrate 50 μM, room temperature 1 h, fluorescence 380/460 nm
T1 sequence (P09960 1-611): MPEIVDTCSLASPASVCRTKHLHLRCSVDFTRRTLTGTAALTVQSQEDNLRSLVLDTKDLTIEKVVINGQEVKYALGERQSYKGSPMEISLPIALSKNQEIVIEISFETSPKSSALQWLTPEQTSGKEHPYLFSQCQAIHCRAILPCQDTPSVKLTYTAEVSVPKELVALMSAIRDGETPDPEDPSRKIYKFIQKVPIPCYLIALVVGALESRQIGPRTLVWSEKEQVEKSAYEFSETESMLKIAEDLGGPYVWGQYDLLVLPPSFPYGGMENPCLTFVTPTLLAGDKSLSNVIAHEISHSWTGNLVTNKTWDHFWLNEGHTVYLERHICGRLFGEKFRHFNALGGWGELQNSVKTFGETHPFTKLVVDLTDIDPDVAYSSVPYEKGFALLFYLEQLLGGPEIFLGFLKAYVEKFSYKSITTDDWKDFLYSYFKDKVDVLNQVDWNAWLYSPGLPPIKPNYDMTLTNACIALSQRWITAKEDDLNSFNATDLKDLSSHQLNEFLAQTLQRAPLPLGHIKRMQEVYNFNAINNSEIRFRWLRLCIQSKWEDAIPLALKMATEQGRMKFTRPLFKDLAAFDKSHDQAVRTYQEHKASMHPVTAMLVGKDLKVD
Method in brief: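 Human LTA4H (1 nM final) incubated with compound and Arg-AMC (50 μM final) in 50 mM Tris-HCl pH 7.5, 100 mM KCl, 0.5% BSA, 1 h at room temperature. Product read as AMC fluorescence (ex 380/em 460 nm); IC50 reported.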

Row | IC50 [1] [nM] | IC50 (human LTA4 hydrolase) [nM] | SMILES
1 | 190 | 0.27 | CN(Cc1nc2cc(Oc3ccc(-c4ccn[nH]4)cc3)ccc2[nH]1)CC1CCOC1 (stereo not drawn) [Example 104, Methyl-{5-[4-(2H-pyrazol-3-yl)-phenoxy]-1H-benzoimidazol-2-ylmethyl}-(tetrahydro-furan-3-ylmethyl)-amine]
2 | 200 | 0.53 | c1cc(-c2ccc(Oc3ccc4nn(CCCN5CCCC5)cc4c3)cc2)[nH]n1 [Example 105, 5-[4-(2H-Pyrazol-3-yl)-phenoxy]-2-(3-pyrrolidin-1-yl-propyl)-2H-indazole]
3 | 200 | 0.17 | c1cc(-c2ccc(Oc3ccc4[nH]c(CNCC5CCOCC5)nc4c3)cc2)[nH]n1 [Example 106, {5-[4-(2H-Pyrazol-3-yl)-phenoxy]-1H-benzoimidazol-2-ylmethyl}-(tetrahydro-pyran-4-ylmethyl)-amine]
4 | 220 | 2 | N#C[C@@H]1CCN(Cc2ccc3cc(Oc4ccc(-c5ccn[nH]5)cn4)ccc3n2)C1 [Example 107, (R)-1-{6-[5-(2H-Pyrazol-3-yl)-pyridin-2-yloxy]-quinolin-2-ylmethyl}-pyrrolidine-3-carbonitrile]
5 | 230 | 0.54 | CC(=O)N1CCN(CCc2ccc3cc(Oc4ccc(-c5ccn[nH]5)cn4)ccc3n2)CC1 [Example 108, 1-[4-(2-{6-[5-(2H-pyrazol-3-yl)-pyridin-2-yloxy]-quinolin-2-yl}-ethyl)-piperazin-1-yl]-ethanone]
6 | 230 | 0.47 | CC(=O)NC1CCN(CCCn2ncc3cc(Oc4ccc(-c5ccn[nH]5)cc4)ccc32)CC1 [Example 109, N-[1-(3-{5-[4-(2H-Pyrazol-3-yl)-phenoxy]-indazol-1-yl}-propyl)-piperidin-4-yl]-acetamide]
7 | 240 | 0.7 | CC(=O)N1CCC(N(C)Cc2ccc3cc(Oc4ccc(-c5ccn[nH]5)cn4)ccc3n2)CC1 [Example 110, 1-[4-(Methyl-{6-[5-(2H-pyrazol-3-yl)-pyridin-2-yloxy]-quinolin-2-ylmethyl}-amino)-piperidin-1-yl]-ethanone]
8 | 280 | 2 | c1cc(-c2ccc(Oc3ccc4c(cnn4CCN4CCOCC4)c3)nc2)[nH]n1 [Example 111, 1-(2-Morpholin-4-yl-ethyl)-5-[5-(2H-pyrazol-3-yl)-pyridin-2-yloxy]-1H-indazole]
9 | 280 | 2.1 | CC(C)(O)C(=O)NC1CCN(CCn2cc3cc(Oc4ccc(-c5ccn[nH]5)cn4)ccc3n2)CC1 [Example 112, 2-Hydroxy-2-methyl-N-[1-(2-{5-[5-(2H-pyrazol-3-yl)-pyridin-2-yloxy]-indazol-2-yl}-ethyl)-piperidin-4-yl]-propionamide]
10 | 470 | 2.6 | c1cc(-c2ccc(Oc3ccc4c(CN5CCOCC5)n[nH]c4c3)nc2)[nH]n1 [Example 113, 3-Morpholin-4-ylmethyl-6-[5-(2H-pyrazol-3-yl)-pyridin-2-yloxy]-1H-indazole]
11 | 500 | 0.75 | c1cc(-c2ccc(Oc3ccc4nc(CN5CCOCC5)oc4c3)cc2)[nH]n1 [Example 114, 2-morpholin-4-ylmethyl-6-[4-(2H-pyrazol-3-yl)-phenoxy]-benzoxazole]
12 | 550 | 1.7 | CC(=O)N1CCN(c2ccc3cc(Oc4ccc(-c5ccn[nH]5)cn4)ccc3n2)CC1 [Example 115, 1-(4-{6-[5-(2H-Pyrazol-3-yl)-pyridin-2-yloxy]-quinolin-2-yl}-piperazin-1-yl)-ethanone]
13 | 580 | 0.95 | CC(=O)NC1CCN(CCCn2cc3cc(Oc4ccc(-c5ccn[nH]5)cc4)ccc3n2)CC1 [Example 116, N-[1-(3-{5-[4-(2H-Pyrazol-3-yl)-phenoxy]-indazol-2-yl}-propyl)-piperidin-4-yl]-acetamide]
14 | 650 | 4.4 | O=C1CC[C@@H](Cn2ncc3cc(Oc4ccc(-c5ccn[nH]5)cn4)ccc32)N1 [Example 117, (S)-5-{5-[5-(2H-Pyrazol-3-yl)-pyridin-2-yloxy]-indazol-1-ylmethyl}-pyrrolidin-2-one]
15 | 760 | 7 | OCCCn1ncc2cc(Oc3ccc(-c4ccn[nH]4)cc3)ccc21 [Example 118, 3-{5-[4-(2H-Pyrazol-3-yl)-phenoxy]-indazol-1-yl}-propan-1-ol]
16 | 2000 | 20 | O=C1CC[C@@H](COc2nccc3cc(Oc4ccc(-c5ccn[nH]5)cc4)ccc23)N1 [Example 119, (S)-5-{6-[4-(2H-Pyrazol-3-yl)-phenoxy]-isoquinolin-1-yloxymethyl}-pyrrolidin-2-one]
17 | 3100 | 25 | c1cc(-c2ccc(Oc3ccc4nc(OCCN5CCOCC5)ccc4c3)nc2)[nH]n1 [Example 120, 2-(2-morpholin-4-yl-ethoxy)-6-[5-(2H-pyrazol-3-yl)-pyridin-2-yloxy]-quinoline]
18 | 390 | 1.5 | CC(=O)NCCNCc1ccc2cc(Oc3ccc(-c4ccn[nH]4)cn3)ccc2n1 [Example 121, N-[2-({6-[5-(2H-Pyrazol-3-yl)-pyridin-2-yloxy]-quinolin-2-ylmethyl}-amino)-ethyl]-acetamide]
19 | 200 | 0.97 | COCCN(C)Cc1ccc2cc(Oc3ccc(-c4ccn[nH]4)cn3)ccc2n1 [Example 122, (2-Methoxy-ethyl)-methyl-{6-[5-(2H-pyrazol-3-yl)-pyridin-2-yloxy]-quinolin-2-ylmethyl}-amine]
20 | 240 | 0.44 | CN(C)Cc1ccc2cc(Oc3ccc(-c4ccn[nH]4)cc3)ccc2n1 [Example 123, Dimethyl-{6-[4-(2H-pyrazol-3-yl)-phenoxy]-quinolin-2-ylmethyl}-amine]
21 | 130 | 0.061 | O=C(O)c1ccc(C2CCN(Cc3ccc4c(ccn4Cc4ccc(-c5ccn[nH]5)cc4)c3)CC2)cc1 [Example 124, 4-(1-{1-[4-(2H-pyrazol-3-yl)-benzyl]-1H-indol-5-ylmethyl}-piperidin-4-yl)-benzoic acid]
22 | 100 | 0.29 | CC(=O)NC1CCN(CC2Cc3ccc(Oc4ccc(-c5ccn[nH]5)cn4)cc3O2)CC1 (stereo not drawn) [Example 125, N-(1-{6-[5-(2H-Pyrazol-3-yl)-pyridin-2-yloxy]-2,3-dihydro-benzofuran-2-ylmethyl}-piperidin-4-yl)-acetamide]
23 | 110 | 0.51 | c1cc(-c2ccc(Oc3ccc4c(c3)OC(CN3CCCC3)C4)nc2)[nH]n1 (stereo not drawn) [Example 126, 5-(2H-Pyrazol-3-yl)-2-(2-pyrrolidin-1-ylmethyl-2,3-dihydro-benzofuran-6-yloxy)-pyridine]
24 | 130 | 0.68 | c1cc(-c2ccc(Oc3ccc4cc(CN5CCCC5)oc4c3)nc2)[nH]n1 [Example 127, 5-(2H-Pyrazol-3-yl)-2-(2-pyrrolidin-1-ylmethyl-benzofuran-6-yloxy)-pyridine]
25 | 170 | 0.74 | CC(=O)NCC1CCN(CC2Cc3ccc(Oc4ccc(-c5ccn[nH]5)cn4)cc3O2)CC1 (stereo not drawn) [Example 128, N-(1-{6-[5-(2H-Pyrazol-3-yl)-pyridin-2-yloxy]-2,3-dihydro-benzofuran-2-ylmethyl}-piperidin-4-ylmethyl)-acetamide]
26 | 190 | 0.92 | O=C1CCCN1C1CCN(CC2Cc3ccc(Oc4ccc(-c5ccn[nH]5)cn4)cc3O2)CC1 (stereo not drawn) [Example 129, 1-(1-{6-[5-(2H-Pyrazol-3-yl)-pyridin-2-yloxy]-2,3-dihydro-benzofuran-2-ylmethyl}-piperidin-4-yl)-pyrrolidin-2-one]
27 | 99 | 0.26 | O=C1OCCN1C1CCN(CCc2coc3cc(Oc4ccc(-c5ccn[nH]5)cn4)ccc23)CC1 [Example 130, 3-[1-(2-{6-[5-(2H-Pyrazol-3-yl)-pyridin-2-yloxy]-benzofuran-3-yl}-ethyl)-piperidin-4-yl]-oxazolidin-2-one]
28 | 150 | 0.35 | CC(=O)NC1CCN(CCc2coc3cc(Oc4ccc(-c5ccn[nH]5)cn4)ccc23)CC1 [Example 133, N-[1-(2-{6-[5-(2H-Pyrazol-3-yl)-pyridin-2-yloxy]-benzofuran-3-yl}-ethyl)-piperidin-4-yl]-acetamide]

Row | SMILES | IC50 [1] [nM] | IC50 (human LTA4 hydrolase) [nM]
29 | CC(=O)N[C@H]1C[C@H]2CC[C@@H](C1)N2CC1Cc2ccc(Oc3ccc(-c4ccn[nH]4)cc3)cc2O1 (stereo partly drawn) [Example 131, N-((endo)-8-{6-[4-(2H-Pyrazol-3-yl)-phenoxy]-2,3-dihydro-benzofuran-2-ylmethyl}-8-aza-bicyclo[3.2.1]oct-3-yl)-acetamide] | 120 | 0.17
30 | O=C(CO)N1CC2CCC(C1)N2Cc1ccc2cc(Oc3ccc(-c4ccn[nH]4)cn3)ccc2n1 [Example 132, 2-Hydroxy-1-(8-{6-[5-(2H-pyrazol-3-yl)-pyridin-2-yloxy]-quinolin-2-ylmethyl}-3,8-diaza-bicyclo[3.2.1]oct-3-yl)-ethanone] | 140 | 0.28
